Source: patent US20240383874A1, “BENZENE RING DERIVATIVE, AND COMPOSITION AND PHARMACEUTICAL USE THEREOF” (Xizang Haisco Pharmaceutical Co., Ltd., priority 2020, published 2024)
Structures can show the parent of a compound that is named as a salt.

Test system: 22RV1 cells
Experiment: Experiment 2 on inhibiting 22RV1 cell proliferation (7 days, CellTiter-Glo)
Assay type: cell-based
Settings: Homo sapiens, 22Rv1, 168 h, 1% css-FBS phenol red-free medium, incubated with compound 7 days, read-out: IC50 values on proliferation inhibition of 22RV1 cells
Outline: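 22RV1 cells plated at 2000/well in phenol red-free medium with 1% css-FBS and treated next day with compound for 7 days at 37 °C. Viability read by CellTiter-Glo luminescence relative to DMSO vehicle; IC50 from dose-response fit.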

IC50 | SMILES
612 nM | CC(C)(c1ccc(OCc2ccnc(N3CC4(CCN(CC5CN(c6ccc7c(c6)C(=O)N(C6CCC(=O)NC6=O)C7=O)C5)CC4)C3)n2)cc1)c1cc(Cl)cc(C#N)c1 (stereo not drawn) [Compound 70 trifluoroacetate, 3-chloro-5-(2-(4-((2-(7-((1-(2-(2,6-dioxopiperidin-3-yl)-1,3-dioxoisoindolin-5-yl)azetidin-3-yl)methyl)-2,7-diazaspiro[3.5]nonan-2-yl)pyrimidin-4-yl)methoxy)phenyl)propan-2-yl)benzonitrile]
811 nM | Cn1c(=O)n(C2CCC(=O)NC2=O)c2ccc(CN3CC(N4CCC(N5CCN(c6nccc(COc7ccc(C(C)(C)c8cc(Cl)cc(C#N)c8)cc7)n6)CC5)CC4)C3)cc21 (stereo not drawn) [Compound 71 trifluoroacetate, 3-chloro-5-(2-(4-((2-(4-(1-(1-((1-(2,6-dioxopiperidin-3-yl)-3-methyl-2-oxo-2,3-dihydro-1H-benzo[d]imidazol-5-yl)methyl)azetidin-3-yl)piperidin-4-yl)piperazin-1-yl)pyrimidin-4-yl)methoxy)phenyl)propan-2-yl)benzonitrile]
464 nM | CC(C)(c1ccc(OCc2ccnc(N3CC4CN(CC5CCN(c6ccc7c(c6)C(=O)N(C6CCC(=O)NC6=O)C7=O)CC5)CC4C3)n2)cc1)c1cc(Cl)cc(C#N)c1 (stereo not drawn) [Compound 72 trifluoroacetate, 3-chloro-5-(2-(4-((2-(5-((1-(2-(2,6-dioxopiperidin-3-yl)-1,3-dioxoisoindolin-5-yl)piperidin-4-yl)methyl)hexahydropyrrolo[3,4-c]pyrrol-2(1H)-yl)pyrimidin-4-yl)methoxy)phenyl)propan-2-yl)benzonitrile]
97 nM | CC(C)(c1ccc(OCc2ccnc(N3CC4CN(CC5CN(c6ccc7c(c6)C(=O)N(C6CCC(=O)NC6=O)C7=O)C5)CC4C3)n2)cc1)c1cc(Cl)cc(C#N)c1 (stereo not drawn) [Compound 73 trifluoroacetate, 3-chloro-5-(2-(4-((2-(5-((1-(2-(2,6-dioxopiperidin-3-yl)-1,3-dioxoisoindolin-5-yl)azetidin-3-yl)methyl)hexahydropyrrolo[3,4-c]pyrrol-2(1H)-yl)pyrimidin-4-yl)methoxy)phenyl)propan-2-yl)benzonitrile]
474 nM | Cn1c(=O)n(C2CCC(=O)NC2=O)c2cccc(CN3CCC(CN4CCC(C5CCN(c6nccc(COc7ccc(C(C)(C)c8cc(Cl)cc(C#N)c8)cc7)n6)CC5)CC4)CC3)c21 (stereo not drawn) [Compound 74 trifluoroacetate, 3-chloro-5-(2-(4-((2-(1′-((1-((1-(2,6-dioxopiperidin-3-yl)-3-methyl-2-oxo-2,3-dihydro-1H-benzo[d]imidazol-4-yl)methyl)piperidin-4-yl)methyl)-[4,4′-bipiperidin]-1-yl)pyrimidin-4-yl)methoxy)phenyl)propan-2-yl)benzonitrile]
275 nM | CC(C)(c1ccc(OCc2ccnc(N3CCC4(CC3)CN(C3CCN(C5CN(c6ccc7c(c6)C(=O)N(C6CCC(=O)NC6=O)C7=O)C5)CC3)C4)n2)cc1)c1cc(Cl)cc(C#N)c1 (stereo not drawn) [Compound 75 trifluoroacetate, 3-chloro-5-(2-(4-((2-(2-(1-(1-(2-(2,6-dioxopiperidin-3-yl)-1,3-dioxoisoindolin-5-yl)azetidin-3-yl)piperidin-4-yl)-2,7-diazaspiro[3.5]nonan-7-yl)pyrimidin-4-yl)methoxy)phenyl)propan-2-yl)benzonitrile]
475 nM | CC(C)(c1ccc(OCc2ccnc(N3CCC4(CC3)CN(C3CN(C5CN(c6ccc7c(c6)C(=O)N(C6CCC(=O)NC6=O)C7=O)C5)C3)C4)n2)cc1)c1cc(Cl)cc(C#N)c1 (stereo not drawn) [Compound 76 trifluoroacetate, 3-chloro-5-(2-(4-((2-(2-(1′-(2-(2,6-dioxopiperidin-3-yl)-1,3-dioxoisoindolin-5-yl)-[1,3′-biazetidin]-3-yl)-2,7-diazaspiro[3.5]nonan-7-yl)pyrimidin-4-yl)methoxy)phenyl)propan-2-yl)benzonitrile]
192 nM | CC(C)(c1ccc(OCc2ccnc(N3CCC(CN4CCC5(CC4)CCN(c4ccc6c(c4)C(=O)N(C4CCC(=O)NC4=O)C6=O)CC5)CC3)n2)cc1)c1cc(Cl)cc(C#N)c1 (stereo not drawn) [Compound 77 trifluoroacetate, 3-chloro-5-(2-(4-((2-(4-((9-(2-(2,6-dioxopiperidin-3-yl)-1,3-dioxoisoindolin-5-yl)-3,9-diazaspiro[5.5]undecan-3-yl)methyl)piperidin-1-yl)pyrimidin-4-yl)methoxy)phenyl)propan-2-yl)benzonitrile]
484 nM | CC(C)(c1ccc(OCc2ccnc(N3CC4CN(C5CCN(C6CN(c7ccc8c(c7)C(=O)N(C7CCC(=O)NC7=O)C8=O)C6)CC5)CC4C3)n2)cc1)c1cc(Cl)cc(C#N)c1 (stereo not drawn) [Compound 81 trifluoroacetate, 3-chloro-5-(2-(4-((2-(5-(1-(1-(2-(2,6-dioxopiperidin-3-yl)-1,3-dioxoisoindolin-5-yl)azetidin-3-yl)piperidin-4-yl)hexahydropyrrolo[3,4-c]pyrrol-2(1H)-yl)pyrimidin-4-yl)methoxy)phenyl)propan-2-yl)benzonitrile]
413 nM | CC(C)(c1ccc(OCc2ccnc(N3CC4CN(C5CCN(CC6CCN(c7ccc8c(c7)C(=O)N(C7CCC(=O)NC7=O)C8=O)CC6)CC5)CC4C3)n2)cc1)c1cc(Cl)cc(C#N)c1 (stereo not drawn) [Compound 82 trifluoroacetate, 3-chloro-5-(2-(4-((2-(5-(1-((1-(2-(2,6-dioxopiperidin-3-yl)-1,3-dioxoisoindolin-5-yl)piperidin-4-yl)methyl)piperidin-4-yl)hexahydropyrrolo[3,4-c]pyrrol-2(1H)-yl)pyrimidin-4-yl)methoxy)phenyl)propan-2-yl)benzonitrile]
316 nM | Cn1c(=O)n(C2CCC(=O)NC2=O)c2cccc(N3CCC(C4CCN(CC5CCN(c6nccc(COc7ccc(C(C)(C)c8cc(Cl)cc(C#N)c8)cc7)n6)CC5)CC4)CC3)c21 (stereo not drawn) [Compound 85 trifluoroacetate, 3-chloro-5-(2-(4-((2-(4-((1′-(1-(2,6-dioxopiperidin-3-yl)-3-methyl-2-oxo-2,3-dihydro-1H-benzo[d]imidazol-4-yl)-[4,4′-bipiperidin]-1-yl)methyl)piperidin-1-yl)pyrimidin-4-yl)methoxy)phenyl)propan-2-yl)benzonitrile]
278 nM | CC(C)(c1ccc(OCc2ccnc(N3CCC(CN4CCC5(CC4)CCN(c4ccc6c(c4)C(=O)N(C4CCC(=O)NC4=O)C6=O)CC5)C3)n2)cc1)c1cc(Cl)cc(C#N)c1 (stereo not drawn) [Compound 86 trifluoroacetate, 3-chloro-5-(2-(4-((2-(3-((9-(2-(2,6-dioxopiperidin-3-yl)-1,3-dioxoisoindolin-5-yl)-3,9-diazaspiro[5.5]undecan-3-yl)methyl)pyrrolidin-1-yl)pyrimidin-4-yl)methoxy)phenyl)propan-2-yl)benzonitrile]
303 nM | CC(C)(c1ccc(OCc2ccnc(N3CC(CN4CCC5(CC4)CCN(c4ccc6c(c4)C(=O)N(C4CCC(=O)NC4=O)C6=O)CC5)C3)n2)cc1)c1cc(Cl)cc(C#N)c1 (stereo not drawn) [Compound 87 trifluoroacetate, 3-chloro-5-(2-(4-((2-(3-((9-(2-(2,6-dioxopiperidin-3-yl)-1,3-dioxoisoindolin-5-yl)-3,9-diazaspiro[5.5]undecan-3-yl)methyl)azetidin-1-yl)pyrimidin-4-yl)methoxy)phenyl)propan-2-yl)benzonitrile]
627 nM | Cn1c(=O)n(C2CCC(=O)NC2=O)c2ccc(C3CCN(C4CCN(CC5(F)CCN(c6nccc(COc7ccc(C(C)(C)c8cc(Cl)cc(C#N)c8)cc7)n6)CC5)CC4)CC3)cc21 (stereo not drawn) [Compound 90 trifluoroacetate, 3-chloro-5-(2-(4-((2-(4-((4-(1-(2,6-dioxopiperidin-3-yl)-3-methyl-2-oxo-2,3-dihydro-1H-benzo[d]imidazol-5-yl)-[1,4′-bipiperidin]-1′-yl)methyl)-4-fluoropiperidin-1-yl)pyrimidin-4-yl)methoxy)phenyl)propan-2-yl)benzonitrile]
427 nM | Cn1c(=O)n(C2CCC(=O)NC2=O)c2ccc(C3CCN(CC4CCN(C5CCN(c6nccc(COc7ccc(C(C)(C)c8cc(Cl)cc(C#N)c8)cc7)n6)CC5)CC4)CC3)cc21 (stereo not drawn) [Compound 91 trifluoroacetate, 3-chloro-5-(2-(4-((2-(4-((4-(1-(2,6-dioxopiperidin-3-yl)-3-methyl-2-oxo-2,3-dihydro-1H-benzo[d]imidazol-5-yl)piperidin-1-yl)methyl)-[1,4′-bipiperidin]-1′-yl)pyrimidin-4-yl)methoxy)phenyl)propan-2-yl)benzonitrile]
900 nM | COc1c(Cl)cc(C(C)(C)c2ccc(OCc3ccnc(N4CCC(CN5CCC(c6ccc7c(c6)n(C)c(=O)n7C6CCC(=O)NC6=O)CC5)CC4)n3)cc2)cc1C#N (stereo not drawn) [Compound 92 trifluoroacetate, 3-chloro-5-(2-(4-((2-(4-((4-(1-(2,6-dioxopiperidin-3-yl)-3-methyl-2-oxo-2,3-dihydro-1H-benzo[d]imidazol-5-yl)piperidin-1-yl)methyl)piperidin-1-yl)pyrimidin-4-yl)methoxy)phenyl)propan-2-yl)-2-methoxybenzonitrile]
554 nM | COc1c(Cl)cc(C(C)(C)c2ccc(OCc3ccnc(N4CCC5(CCC(CN6CCC(c7ccc8c(c7)n(C)c(=O)n8C7CCC(=O)NC7=O)CC6)CC5)CC4)n3)cc2)cc1C#N (stereo not drawn) [Compound 93 trifluoroacetate, 3-chloro-5-(2-(4-((2-(9-((4-(1-(2,6-dioxopiperidin-3-yl)-3-methyl-2-oxo-2,3-dihydro-1H-benzo[d]imidazol-5-yl)piperidin-1-yl)methyl)-3-azaspiro[5.5]undecan-3-yl)pyrimidin-4-yl)methoxy)phenyl)propan-2-yl)-2-methoxybenzonitrile]
577 nM | Cn1c(=O)n(C2CCC(=O)NC2=O)c2cccc(CN3CCC(N4CCC5(CCN(c6nccc(COc7ccc(C(C)(C)c8cc(Cl)cc(C#N)c8)cc7)n6)CC5)CC4)CC3)c21 (stereo not drawn) [Compound 100 trifluoroacetate, 3-chloro-5-(2-(4-((2-(9-(1-((1-(2,6-dioxopiperidin-3-yl)-3-methyl-2-oxo-2,3-dihydro-1H-benzo[d]imidazol-4-yl)methyl)piperidin-4-yl)-3,9-diazaspiro[5.5]undecan-3-yl)pyrimidin-4-yl)methoxy)phenyl)propan-2-yl)benzonitrile]
